The values that follow come from patent US9248163B2, “Insulin-like growth factor binding protein 7 for treatment of cancer” (University of Massachusetts, priority 2007, dated 2016).

For data set [1], the system named is human melanoma cell lines. Kind of data set: Apoptosis assay (Annexin V-PE) in melanoma cells. The format is cell-based. The procedure: PFF fibroblasts or melanocytes or shRNA knockdown derivatives (5×10^5 cells) were infected with BRAFV600E-expressing retrovirus, and 4 days later the total cell population was stained for Annexin V-PE (BD Biosciences). To monitor apoptosis in melanoma cells following rIGFBP7 treatment, 5×10^5 cells were treated with rIGFBP7 (10 μg/ml) for 24 hours and stained for Annexin V-PE.
Finally, it was determined whether apoptosis was dependent upon the continual presence of rIGFBP7 or was irreversible following transient exposure to rIGFBP7. SK-MEL-28 cells were incubated with rIGFBP7 for various lengths of time, following which the cells were washed and cultured in medium lacking rIGFBP7, and apoptosis was quantitated after 24 hours. The results, shown in FIG. 3H, indicate that following 6 hours of incubation with rIGFBP7, the cells were irreversibly committed to apoptosis, which occurred even following removal of rIGFBP7.

For the next data set, the system named is SK-MEL-28 cells. The data set is described as follows: Immunoblot analysis of SMARCB1, BNIP3L and activated caspase 3. In kind it is cell-based, human. To be noted: 10 μg/ml. The procedure: To prepare cell extracts, cells were lysed in Laemmli buffer; for phospho-proteins, cells were lysed in the presence of a phosphatase inhibitor cocktail (Sigma). To prepare conditioned media, cells were grown in Opti-MEM™ (Invitrogen) for 24 hours, and media was harvested and concentrated using Centricon™ plus 20 tubes (Millipore). Conditioned media was normalized to cell number prior to loading the gel. For the experiments shown in FIGS. 3D and 4C, rIGFBP7 was added to the culture medium at a concentration of 10 μg/ml. For the MEK/RAF inhibitor experiment of FIG. 4D, SK-MEL-28 cells were treated with 2 μg/ml or 10 μg/ml rIGFBP7, 20 μM or 40 μM of the MEK inhibitor PD98054 (Calbiochem), or 5 nM or 10 nM the RAF inhibitor GW5074 (Sigma) for 24 hours prior to harvesting cells. Proteins were resolved by SDS-PAGE and transferred to nitrocellulose. Blots were probed with the following antibodies: α-p16 (Abcam), α-acetylated H3K9 (Upstate), α-IGFBP7 (Santa Cruz), α-SMARCB1 (Abnova), α-BNIP3L (Proscience), α-BRAFV600E (Santa Cruz), α-cleaved caspase-3 p11 (Santa Cruz), α-β-actin (Sigma), α-phospho-ERK (Cell Signaling) or α-ERK (Cell Signaling).

Data set [2] has as its system primary melanocytes and SK-MEL-28 melanoma cells. Kind of data set: Quantitative real-time RT-PCR of the identified genes after rIGFBP7 addition. The format is cell-based, human. The protocol: Total RNA was isolated using TRIZOL™ (Invitrogen) 7 days after retroviral transduction and puromycin selection. Reverse transcription was performed using SuperScript™ II Reverse Transcriptase (Invitrogen) as per the manufacturer's instructions, followed by quantitative real-time PCR using Platinum SYBR™ Green qPCR SuperMix-UDG with Rox (Invitrogen).
To understand the basis of this differential response, expression of the 17 identified genes was analyzed in primary melanocytes and BRAFV600E-positive SK-MEL-28 melanoma cells. […] PEA15, a known regulator of BRAF-MEK-ERK signaling (Formstecher et al., 2001, Dev. Cell, 1:239-250), is required for senescence (see FIG. 1F). Thus, the lack of PEA15 induction in IGFBP7-treated SK-MEL-28 cells can explain their failure to undergo senescence.
(In qPCR the cycle at which signal appears reflects the starting amount.)

In data set [3] the test system is A375(Fluc-IRES-GFP) cells. Kind of data set: Pulmonary metastasis model, A375(Fluc-IRES-GFP) cells by tail vein injection.
From the text: For these experiments, A375(Fluc-IRES-GFP) cells were used, which are a highly metastatic, BRAF-positive human melanoma cell line stably expressing an Fluc-IRES-GFP reporter construct (where Fluc is the firefly luciferase gene, IRES is an internal ribosomal entry site and GFP is green fluorescent protein) (Collisson et al., 2003, Cancer Res., 63:5669-5673). The presence of Fluc-IRES-GFP enables tumor growth to be quantified over time in live animals by serial bioluminescent optical imaging.
Two treatment regimens were tested. In one set of experiments, administration of IGFBP7 was initiated 3 days after injection of A375-Fluc cells, at which time metastatic disease would be significant (FIG. 12A). In these experiments, 7×10^5 A375(Fluc-IRES-GFP) cells were injected into the tail vein of 10 athymic Balb/c (nu/nu) mice (Taconic). At days 3, 6 and 9, mice were injected via the tail vein with either 100 μg purified, recombinant IGFBP7 (n=5 mice) or, as a control, phosphate buffered saline (PBS) (n=5 mice). On day 6, mice were analyzed for quantitation of metastatic tumor burden by using a Xenogen brand bioluminescent imaging system. […] Mice were monitored daily for viability over 30 days, and the ability of systemically administered IGFBP7 to suppress metastatic disease was assessed by survival assays (Kaplan-Meier analysis).
In a second set of experiments, administration of IGFBP7 was initiated both before and shortly after injection of A375(Fluc-IRES-GFP) cells, to test the ability of IGFBP7 to function prophylactically to prevent metastasis and/or treat early metastatic disease (FIG. 13A). In these experiments, 100 μg purified, recombinant IGFBP7 (or, as a control, PBS) was injected into the tail vein of mice (n=5 mice for each group). One day later, mice were injected with 7×10^5 A375(Fluc-IRES-GFP) cells, followed by injection of 100 μg on days 3 and 6. Mice were monitored daily for viability over 30 days, and the ability of systemically administered IGFBP7 to suppress metastatic disease was assessed by survival assays (Kaplan-Meier analysis).
In data set [4] the test system is SK-MEL-31 (wild type BRAF) tumors. Kind of data set: Tumor formation assay, SK-MEL-31 xenograft in nude mice. In kind it is in vivo, athymic Balb/c (nu/nu) mice. The protocol:
(§1) 5×10^6 SK-MEL-28 or SK-MEL-31 cells were suspended in 100 μl of serum-free DMEM and injected subcutaneously into the right flank of athymic Balb/c (nu/nu) mice (Taconic). Three, six, and nine days later, the mice were injected at the tumor site with either 20 μg of rIGBP7 in a total volume of 100 μl or, as a control, PBS. Tumor dimensions were measured every three days and tumor volume was calculated using the formula π/6×(length)×(width)^2. For the systemic administration experiments, 5×10^6 SK-MEL-28 or SK-MEL-31 cells were injected into the flanks of nude mice and when tumors reached a size of 100 mm3, 100 μg rIGFBP7 in a total volume of 100 μl was delivered by tail vein injection at days 6, 9, and 12. Tumor dimensions were measured every three days. Animal experiments were performed in accordance with the Institutional Animal Care and Use Committee (IACUC) guidelines.

Data set [5] concerns human melanoma cell lines. The data set is described as follows: Proliferation assay of human melanoma cell lines. The format is cell-based. To be noted: 24 hours, 10 μg/ml. The protocol:
For the proliferation assay shown in FIG. 1B, 1×10^4 cells stably expressing an shRNA were cultured in 12-well plate format, infected with BRAFV600E-expressing retrovirus and after 14 days stained with crystal violet. For all other quantitative proliferation assays, cell viability was measured by trypan blue exclusion test at the time point indicated in the relevant figure legend. Values were expressed as percent cell growth, as described in the relevant figure legend. For the proliferation assays shown in FIG. 2A, CM was replenished every 3 days, and proliferation was measured after a total of 14 days of CM treatment. Unless otherwise stated, rIGFBP7 was added to the culture medium at a concentration of 10 μg/ml.
Next, the ability of IGFBP7 to block cellular proliferation in a panel of human melanoma cell lines was analyzed. The cells contained either an activating BRAF mutation (BRAFV600E; SK-MEL-28, MALME-3M, WM793B, WM39 and WM278), an activating RAS mutation (RASQ61R; SK-MEL-2, SK-MEL-103, and WM1366), or were wild type for both BRAF and RAS (CHL, SK-MEL-31, WM1321 and WM3211). For each cell line, the presence of IGFBP7 in the CM was determined by immunoblot analysis (FIG. 3A), and sensitivity to IGFBP7-induced growth inhibition was measured in a proliferation assay (FIG. 3B). The results reveal a striking inverse correlation between IGFBP7 expression and sensitivity to IGFBP7-mediated growth inhibition that correlates with the status of BRAF or RAS.

The test system of data set [6] is SK-MEL-28 (BRAFV600E-positive) tumors. Kind of data set: Tumor formation assay, SK-MEL-28 xenograft in nude mice. The format is in vivo, athymic Balb/c (nu/nu) mice. The procedure:
as §1

Where [7] appears, read: injected at the tumor site, 20 μg, days 3, 6 and 9.
The mark [8] stands for this setting: systemic, 100 μg by tail vein injection at days 6, 9 and 12.

Take “rIGFBP7: purified recombinant human IGFBP7, C-terminal Flag-tagged, from baculovirus-infected Sf9 insect cells”: the “incubation time after which cells were irreversibly committed to apoptosis” value in data set [1] (SK-MEL-28 cells, washed, apoptosis quantitated after 24 hours) was determined as 6 h. Moreover, in data set [1] (melanoma cell lines with activating BRAF mutation), the surviving senescent cells entry is on record as “undetectable”. Moreover, in data set [1] (melanoma cell lines with activating BRAF mutation, 10 μg/ml, 24 hours), the apoptosis result is on record as “strongly induced apoptosis”. Besides, in the data set with SK-MEL-28 cells, the “apoptosis by caspase 3 activation” value was “apoptosis occurred as evidenced by caspase 3 activation”. Besides, the “expression of SMARCB1 and BNIP3L” value in the data set on SK-MEL-28 cells is on record as “significantly increased”. For the same substance, in data set [2] (SK-MEL-28 cells), the “upregulation of IGFBP7 and PEA15” value is “neither IGFBP7 nor PEA15 were upregulated”. Further, in data set [2] (melanocytes, IGFBP7 being the exception), the “induction of the seven BRAFV600E-upregulated genes” value was “six of the seven genes were induced”. Further, the BNIP3L upregulation result in data set [2] (primary melanocytes) was “only modestly upregulated”. Also, the “survival (Kaplan-Meier)” value in data set [3] (100 μg one day before cell injection and on days 3 and 6, PBS mice died within 18 days) is reported as “still viable at day 30”; in data set [3] (100 μg tail vein at days 3, 6 and 9 after cell injection, control mice died at 20 days), “still viable at day 30”. Further, the “lung metastasis by bioluminescent imaging” value in data set [3] (100 μg tail vein from day 3, imaged on day 6) is listed as “no evidence of lung metastasis”. Also, the tumor growth result is on record as “no effect” in data set [4] (setting [7]), “unaffected” in data set [4] (setting [8]), “substantially suppressed growth” in data set [6] (setting [7]) and “completely suppressed growth” in data set [6] (setting [8]). In addition, the “sensitivity to IGFBP7-mediated growth inhibition” value in data set [5] (cells with wild type BRAF and RAS) is “relatively insensitive”; in data set [5] (melanoma cell lines with activating BRAF mutation (BRAFV600E)), “highly sensitive”; in data set [5] (melanoma cell lines with activating RAS mutation (RASQ61R)), “partially sensitive”. The “TUNEL labeling of tumors” value in data set [6] (mice treated with rIGFBP7) is “positive”. The “suppression of tumor growth, dose dependence” value in data set [6] (systemic, 2, 20, 50, 100 or 250 μg, tumor volume at day 21) is given as “dose-dependent”. Also, the adverse effects result in data set [6] (systemic, concentrations higher than required for inhibition of tumor growth) is “without apparent adverse effects”.
